The source of these data is patent US10301344B2, “L-proline complex of sodium-glucose cotransporter 2 inhibitor, monohydrate and crystal form thereof” (Jiangsu Hengrui Medicine Co., Ltd., priority 2014, dated 2019).

This series in a line: Development form properties of the free compound and the complex (hygroscopicity, stability).

On to “1,6-anhydro-1-C-{4-chloro-3-[(3-fluoro-4-ethoxyphenyl)methyl]phenyl}-5-C-(hydroxymethyl)-β-L-idopyranose L-proline complex [complex of formula (I)]”, for which the “stability in comparison to the free compound” value is listed as “improved stability”. In the case of `CCOc1ccc(Cc2cc(C34OC[C@](CO)(O3)C(O)[C@H](O)C4O)ccc2Cl)cc1F` (stereo in doubt) [1,6-anhydro-1-C-{4-chloro-3-[(3-fluoro-4-ethoxyphenyl)methyl]phenyl}-5-C-(hydroxymethyl)-β-L-idopyranose], for the setting “free compound, background statement”, the hygroscopic properties result is reported as “hygroscopic”.
